Measured values published in patent US20180177749A1, “USE OF CYP EXPRESSION TO DIRECT THERAPEUTIC INTERVENTION IN CANCER” (REGENTS OF THE UNIVERSITY OF MINNESOTA, priority 2016, published 2018).

Tests used:
[1] = system: MDA-MB-231 cells; assay: Measurement of OCR and ECAR, MDA-MB-231; assay type: cell-based, human; settings: t-AUCB 2.5, 5 μM, HBB 20, 40 μM
Description: Cells were maintained in growth medium consisting of 10% FBS at 37° C. with 5% CO2 and seeded at 100,000 cells per well in XF24-well cell culture microplates (Seahorse Bioscience, North Billirica, Mass.). Concentrated stocks of HBB were prepared in DMSO. HBB was diluted to 10× working concentration in XF assay medium (a non-buffered medium including 2 mM L-glutamine but no sodium bicarbonate (buffering agent), glucose, or sodium pyruvate). Assays were performed in the XF Extracellular Flux Analyzer (Seahorse Bioscience that measures uptake and excretion of metabolic end products in real time). Oxygen consumption rate (OCR) and extracellular acidification rate (ECAR) were measured using an XF Assay Kit. OCR is reported in pmoles/minute and ECAR in mpH/minute. Before analysis, the cells were switched from culture medium to XF assay medium. After baseline measurements, 75 μl of HBB prepared in assay medium was injected into each well to reach final working concentrations. After addition of HBB, OCR and ECAR were measured at 18-minute intervals. […] There were 6 replicates for the studies of the 3-18 and 4-14 cell lines.

[2] = system: MCF-7 cells; assay: JC-1 mitochondrial membrane potential staining, MCF-7; assay type: cell-based, human; settings: HBB 20 μM 4 hours, (±)-14,15-EET 1 μM
Description: Cells were grown in chamber slides at 37° C. with 5% CO2 and treated with DMSO or HBB for 4 hours before JC-1 dye was added for the MCF-7 or MDA-MB-231 cell line. […] Images of red fluorescence (590 nm) and green fluorescence (530 nm) were acquired using an Olympus 1X70 microscope fitted with an Olympus DP70 digital camera (Olympus, Tokyo, Japan).

[3] = system: MDA-MB-435/LCC6; assay: Measurement of OCR and ECAR, MDA-MB-435/LCC6; assay type: cell-based; settings: 20 and 40 μM
Description: Cells were maintained in growth medium consisting of 10% FBS at 37° C. with 5% CO2 and seeded at 100,000 cells per well in XF24-well cell culture microplates (Seahorse Bioscience, North Billirica, Mass.). Concentrated stocks of HBB were prepared in DMSO. HBB was diluted to 10× working concentration in XF assay medium (a non-buffered medium including 2 mM L-glutamine but no sodium bicarbonate (buffering agent), glucose, or sodium pyruvate). Assays were performed in the XF Extracellular Flux Analyzer (Seahorse Bioscience that measures uptake and excretion of metabolic end products in real time). Oxygen consumption rate (OCR) and extracellular acidification rate (ECAR) were measured using an XF Assay Kit. OCR is reported in pmoles/minute and ECAR in mpH/minute. Before analysis, the cells were switched from culture medium to XF assay medium. After baseline measurements, 75 μl of HBB prepared in assay medium was injected into each well to reach final working concentrations. After addition of HBB, OCR and ECAR were measured at 18-minute intervals. There were 5 replicates was performed for each data point for MCF-7, MDA-MB-231, T47D and MDA-MB-435 cell lines. There were 6 replicates for the studies of the 3-18 and 4-14 cell lines.

[4] = biological target: T1, CYP4A11 (Homo sapiens, UniProt Q02928); assay: CYP4A11-mediated EET biosynthesis; assay type: biochemical; settings: 25 to 100 uM
T1 sequence (Q02928 5-519): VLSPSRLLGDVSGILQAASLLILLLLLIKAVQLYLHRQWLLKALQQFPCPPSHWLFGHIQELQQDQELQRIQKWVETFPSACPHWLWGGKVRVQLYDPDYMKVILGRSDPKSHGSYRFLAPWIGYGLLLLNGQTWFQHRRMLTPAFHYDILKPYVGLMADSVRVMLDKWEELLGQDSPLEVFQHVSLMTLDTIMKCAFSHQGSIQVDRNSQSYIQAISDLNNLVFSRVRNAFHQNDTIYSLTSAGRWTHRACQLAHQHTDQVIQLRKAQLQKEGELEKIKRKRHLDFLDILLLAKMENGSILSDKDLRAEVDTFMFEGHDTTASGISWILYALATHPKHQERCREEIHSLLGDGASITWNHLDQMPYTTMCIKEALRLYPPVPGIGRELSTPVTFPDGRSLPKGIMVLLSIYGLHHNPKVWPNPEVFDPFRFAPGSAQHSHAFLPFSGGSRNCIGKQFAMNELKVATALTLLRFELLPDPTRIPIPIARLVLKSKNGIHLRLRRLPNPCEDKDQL

[5] = system: MCF-7 cells; assay: Western blot of signaling proteins, MCF-7; assay type: cell-based, human
Description: RIPA extracts of cells were prepared as described previously, in the presence of protease inhibitors and phosphatase inhibitors. Protein concentrations were determined by the micro-bicinchoninic acid (BCA) method, and 30 μg of protein was used for each lane of the SDS-polyacrylamide gel Western blot. Relative protein expression was estimated using GAPDH or β-actin as an internal standard.

With `CCCCCCNC(=N)NC(=N)NCc1ccccc1` [HBB, N1-hexyl-N5-benzyl-biguanide] as the molecule, how does the “extracellular acidification rate (ECAR)” value [1] read?
Its value is “least inhibition of ECAR”.

What about the “oxygen consumption rate (OCR)” value [1] of the same molecule?
The value was “significant vs. vehicle”.

What about the “mitochondrial membrane potential (ΔΨm), JC-1” value [2] of the same molecule?
The value was “caused mitochondrial depolarization”.

What about the “reduction of OCR and ECAR” value [3] of the same molecule?
The value was “significant vs. vehicle”.

And the “inhibition of EET production by CYP4A11” value [4]?
The value was “only weakly”.

What about the “dosing for signaling effects relative to metformin (lower)” value [5] of the same molecule?
Its value is 250 fold.

What about the “mTOR, S6 kinase and ERK” value ([5]; 20 μM, by 24 hours, presence or absence of serum) of the same molecule?
Its value is “Significant inhibition”.

What about the “onset of AMPK activation (phosphorylation)” value ([5]; HBB 20 μM, metformin 5 mM) of the same molecule?
Its value is “within 30 minutes to 1 hour”.
